# Assay results taken from patent US9346761B2, “Arginine methyltransferase inhibitors and uses thereof” (Epizyme, Inc., priority 2013, dated 2016).
# pIC50: −log10 of the molar value. Structures can show the parent of a compound that is named as a salt. Where two headings read alike, the source gives them in different places.
# Columns and labels:
# [1] = system: mono-methyl arginine in RKO cells; test: RKO methylation assay, In Cell Western for mono-methyl arginine and DNA content; assay type: cell-based; settings: Homo sapiens
# [2] = biological target: T1, Full-length human PRMT1 isoform 1 (Homo sapiens, UniProt Q99873); test: PRMT1 biochemical assay (3H-SAM Flashplate, peptide substrate)
# T1 construct: GST-tagged PRMT1; made in house; host or cells: High Five insect cells (baculovirus, pFastBacI)
# T1 sequence (Q99873 with tags, fused parts or gaps): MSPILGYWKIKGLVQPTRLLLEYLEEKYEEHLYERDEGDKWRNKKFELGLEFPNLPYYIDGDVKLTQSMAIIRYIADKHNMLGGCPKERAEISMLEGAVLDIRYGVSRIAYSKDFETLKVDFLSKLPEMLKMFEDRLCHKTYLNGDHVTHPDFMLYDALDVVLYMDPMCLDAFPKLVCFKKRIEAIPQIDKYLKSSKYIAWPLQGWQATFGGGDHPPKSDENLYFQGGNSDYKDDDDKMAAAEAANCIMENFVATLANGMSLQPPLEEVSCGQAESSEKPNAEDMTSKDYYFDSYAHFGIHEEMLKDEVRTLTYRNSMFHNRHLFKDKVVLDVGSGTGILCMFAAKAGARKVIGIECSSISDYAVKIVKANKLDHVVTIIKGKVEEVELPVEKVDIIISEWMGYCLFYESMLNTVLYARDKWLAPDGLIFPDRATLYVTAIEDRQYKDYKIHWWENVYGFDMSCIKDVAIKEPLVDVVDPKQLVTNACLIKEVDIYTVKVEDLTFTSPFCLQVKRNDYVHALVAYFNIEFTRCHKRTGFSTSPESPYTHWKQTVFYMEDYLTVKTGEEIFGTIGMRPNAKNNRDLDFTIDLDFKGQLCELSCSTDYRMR
# Procedure, shortened: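 GST-tagged full-length PRMT1 from baculovirus-infected cells, preincubated 30 min at room temperature with compound in 20 mM Bicine pH 7.6, TCEP, BSG, Tween 20. Reaction started with 3H-SAM plus biotinylated peptide, stopped with 300 uM unlabelled SAM. Streptavidin Flashplate capture and scintillation counting; % inhibition curve-fitted for IC50.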
# [3] = In Cell Western, RKO cells, 72 hours, percent activation of mono-methyl arginine signal, read-out: EC30
SMILES,"EC30 [1, 3] [nM]",pIC50 [2],"EC30 ([1]; RKO, 72 h) [nM]"
CNCCN(C)Cc1cn(Cc2ccccc2)nc1-c1ccc(OC(C)C)cc1 [Compound 217],> 12000,> 7.00,
CNCCN(C)Cc1c[nH]nc1-c1ccc(Oc2ccccc2)cc1 [Compound 37],< 3000,> 7.00,
CN(CCN(C)C1CC1)Cc1c[nH]nc1-c1ccc(C#N)cc1 [Compound 184],< 3000,5.52 to 6.00,
CNCCN(C)Cc1n[nH]cc1-c1ccc(OC(C)C)c(F)c1 [Compound 210],< 3000,> 7.00,
CNCCN(C)Cc1c[nH]nc1-c1cccc(O)c1 [Compound 26],> 12000,6.00 to 7.00,
"CNCCN(C)Cc1cn(C2CCC2)nc1-c1ccc(OC(C)C)cc1 [Compound 254, N1-((1-cyclobutyl-3-(4-isopropoxyphenyl)-1H-pyrazol-4-yl)methyl)-N1,N2-dimethylethane-1,2-diamine hydrochloride]",< 3000,> 7.00,
CNCCN(C)Cc1c[nH]nc1-c1ccc(Cl)c(F)c1 [Compound 182],< 3000,> 7.00,
CNCCN(C)Cc1cnn(C)c1-c1ccc(Oc2ccccc2)cc1 [Compound 208],< 3000,> 7.00,
CCNC(=O)c1cccc(-c2n[nH]cc2CN(C)CCNC)c1 [Compound 43],> 12000,6.00 to 7.00,
CN(CCN)Cc1c[nH]nc1-c1ccc(Oc2cccc(F)c2)cc1 [Compound 205],< 3000,> 7.00,
CNCCN(C)Cc1c[nH]nc1-c1ccc(C)cc1C [Compound 29],> 12000,6.00 to 7.00,
CNCCN(C)Cc1c[nH]nc1-c1ccc(OCCCOC)cc1 [Compound 209],< 3000,> 7.00,
CNCCN(C)Cc1cnn(C2CCOC2)c1-c1ccc(OC(C)C)cc1 (stereo not shown) [Compound 216],> 12000,> 7.00,
CN(CCN)Cc1c[nH]nc1-c1ccc2c(c1)N(C)C(=O)CO2 [Compound 196],> 12000,6.00 to 7.00,
CNCCN(C)Cc1c[nH]nc1-c1ccc(OC)cc1 [Compound 25],> 12000,> 7.00,
CCn1cc(CN(C)CCNC)c(-c2ccc(OC(C)C)cc2)n1 [Compound 213],> 12000,> 7.00,
CNCCN(C)Cc1cnn(C2CCCC2)c1-c1ccc(OC(C)C)cc1 [Compound 255],,> 7.00,< 3000
CNCCN(C)Cc1cn(C(C)C)nc1-c1ccc(F)cc1 [Compound 15],> 12000,5.00 to 5.52,
CNCCN(C)Cc1cn(Cc2cccnc2)nc1-c1ccc(OC(C)C)cc1 [Compound 246],,> 7.00,< 3000
CNCCN(C)Cc1cn(C2CCCC2)nc1-c1ccc(OC(C)C)cc1 [Compound 214],> 12000,> 7.00,
CCN(C)C(=O)c1cccc(-c2n[nH]cc2CN(C)CCN)c1 [Compound 198],> 12000,5.52 to 6.00,
CC(C)CN1C(=O)COc2cc(-c3n[nH]cc3CN(C)CCN)ccc21 [Compound 193],3010 to 12000,> 7.00,
CCCc1ccc(-c2n[nH]cc2CN(C)CCNC)cc1 [Compound 20],< 3000,> 7.00,
CCC(=O)N1CCN(c2ccc(-c3n[nH]cc3CN(C)CCN)cc2)CC1 [Compound 189],> 12000,6.00 to 7.00,
CNCCN(C)Cc1cn(C)nc1-c1ccc(Oc2ccccc2)cc1 [Compound 207],< 3000,> 7.00,
CN(CCNC1CC1)Cc1c[nH]nc1-c1ccc(C#N)cc1 [Compound 183],> 12000,5.52 to 6.00,
CCNC(=O)c1cccc(-c2n[nH]cc2CN(C)CCN)c1 [Compound 197],> 12000,6.00 to 7.00,
CNCCN(C)Cc1cnn(C(C)C)c1-c1ccc(F)cc1 [Compound 16],,5.52 to 6.00,> 12000
CNCCN(C)Cc1cn(CC(=O)O)nc1-c1ccc(OC(C)C)cc1 [Compound 250],,6.00 to 7.00,> 12000
